Reference: publication PMC6480586, “Intestinal Permeability Study of Clinically Relevant Formulations of Silibinin in Caco-2 Cell Monolayers” (International Journal of Molecular Sciences, 2019)

Columns and labels:
[1] = Caco-2 cell monolayer transport (permeability) study; format: in vitro ADME; details: human, formulations at 200 µg/mL in HBSS/0.6% DMSO, pH 7.4, 37 °C, up to 120 min, n = 6; for Papp A→B at 120 min, 200 µg/mL: apical to basolateral
Protocol: Caco-2 cells were seeded at a density of 1 × 10^5 onto Transwell 6-well inserts with a polyethylene terephthalate membrane (0.4 µm pore size; BD Falcon) and were maintained at 37 °C under 90% humidity and 5% CO2. The medium was replaced every two to three days for both the AP and BL chambers. Cell monolayers were used 19–21 days after seeding, once confluence and differentiation were achieved. The integrity of each cell monolayer was assessed by measuring the TEER before and after the experiments with an epithelial voltammeter (Millicell-ERS). Permeability studies were performed by adding the silibinin formulations at 200 µg/mL in HBSS/0.6% DMSO (stocks were prepared at 30 mg/mL in 100% DMSO) and, in parallel, standard silibinin at different concentrations (10, 20, 50, 100, 150, 200, and 300 µmol/L).
The transport experiment was initiated by removing the culture medium from the AP and BL chambers. The Caco-2 monolayers were washed twice with pre-warmed HBSS (pH 7.4) and incubated with the same solution at 37 °C for 30 min. […]
Transport studies were performed from apical-to-basolateral (AP–BL) and basolateral-to-apical (BL–AP) chambers. The apparent permeability (Papp) values for each compound were calculated according to the following equation: Papp=dQ/dt·1/A·C0·60 where Papp is the apparent permeability (cm/s), dQ/dt is the steady-state flux, A is the diffusion area of the monolayers (cm^2), C0 is the initial concentration of the drug in the donor compartment (µM), and 60 is a conversion factor [49].
The efflux ratio was calculated to determine the absorption mechanism such as the ratio of Papp (BL–AP) […] Papp (AP–BL).
Analyses were performed using an Agilent LC 1100 series HPLC system (Agilent Technologies, Inc., Palo Alto, CA) controlled by Chemstation software, equipped with a pump, autosampler, column oven, and UV–VIS diode array detector (wavelength selected at 280 nm to detect silibinin). […] A calibration graph for the quantitative evaluation of silibinin was performed using a six-point regression curve (r^2 > 0.999).

[2] = cited from earlier work

SMILES | Papp A→B at 120 min, 200 µg/mL [1] [×10⁻⁶ cm/s] | Solubility in polar aprotic solvents ([2]; e.g., acetone, DMF, THF) | Solubility in non-polar solvents ([2]; e.g., chloroform and petroleum ether) | Solubility in polar protic solvents ([2]; e.g., ethanol and methanol) | Solubility in water ([2]; water) | Water solubility ([2]; water) [µg/mL] | Papp B→A at 120 min, 200 µg/mL ([1]; basolateral to apical) [×10⁻⁶ cm/s]
COCCc1ccc(OCC(O)CNC(C)C)cc1 (centres unmarked) [metroprolol, metoprolol] | 60 |  |  |  |  |  | 
COc1cc(C2Oc3cc([C@H]4Oc5cc(O)cc(O)c5C(=O)[C@@H]4O)ccc3OC2CO)ccc1O (some centres unmarked) [silibinin] | 3.2 | soluble | insoluble | poorly soluble | very poor solubility in water | < 40 | 6.28
